Our source for the EC50, Activity and Emax values is ChEMBL document CHEMBL6120997, “Macrocyclic Compounds with Diverse Skeletons from the Roots of Myrica nana and Their Spasmolytic Activity” (J Nat Prod, 2025).

Assay [1] deals with Ileum. In words: Ex vivo spasmolytic activity in ACh-induced contractions in Sprague-Dawley rat ileum incubated for 5 mins. The format is functional, tissue-based.
In assay [2] the test system is Ileum. In words: Ex vivo spasmolytic activity in ACh-induced contractions in Sprague-Dawley rat ileum incubated for 5 mins in presence of GLIB. It is filed as functional, tissue-based.
For assay [3], the system named is Ileum. In words: Ex vivo spasmolytic activity in CaCl2-induced contractions in Sprague-Dawley rat ileum at 1 to 2 uM incubated for 15 mins. The format is functional, tissue-based. Particulars: dose 1-2 µM.
Assay [4] deals with Ileum. In words: Ex vivo spasmolytic activity in ACh-induced contractions in Sprague-Dawley rat ileum at 0.5 to 8 uM incubated for 5 mins relative to control. It is filed as functional. Particulars: dose 0.5-8 µM.
Assay [5] concerns Ileum. In words: Ex vivo spasmolytic activity in ACh-induced contractions in Sprague-Dawley rat ileum at 0.5 to 8 uM incubated for 5 mins in presence of 4-AP relative to control. The format is functional. Particulars: dose 0.5-8 µM.
The test system of assay [6] is Ileum. In words: Ex vivo spasmolytic activity in ACh-induced contractions in Sprague-Dawley rat ileum at 0.5 to 8 uM incubated for 5 mins in presence ODQ relative to control. It is filed as functional. As to conditions: dose 0.5-8 µM.
Assay [7] has as its system Ileum. In words: Ex vivo spasmolytic activity in ACh-induced contractions in Sprague-Dawley rat ileum incubated for 5 mins in presence ODQ. It is filed as functional, tissue-based.
Assay [8] deals with Ileum. Description: Ex vivo spasmolytic activity in ACh-induced contractions in Sprague-Dawley rat ileum incubated for 5 mins in presence of TEA. The format is functional, tissue-based.
The subject of assay [9] is Ileum. In words: Ex vivo spasmolytic activity in ACh-induced contractions in Sprague-Dawley rat ileum at 0.5 to 8 uM incubated for 5 mins in presence of GLIB relative to control. It is filed as functional. As to conditions: dose 0.5-8 µM.
In assay [10] the test system is Ileum. In words: Ex vivo spasmolytic activity in ACh-induced contractions in Sprague-Dawley rat ileum incubated for 5 mins in presence L-NAME. The format is functional, tissue-based.
Assay [11] relates to Ileum. In words: Ex vivo spasmolytic activity in ACh-induced contractions in Sprague-Dawley rat ileum at 0.5 to 8 uM incubated for 5 mins in presence of CsCl relative to control. It is filed as functional. Particulars: dose 0.5-8 µM.
Assay [12] concerns Ileum. Description: Ex vivo spasmolytic activity in ACh-induced contractions in Sprague-Dawley rat ileum at 2 uM incubated for 5 mins. It is filed as functional, tissue-based.
Assay [13] has as its system Ileum. Description: Ex vivo spasmolytic activity in ACh-induced contractions in Sprague-Dawley rat ileum incubated for 5 mins in presence of 4-AP. The format is functional, tissue-based.
In assay [14] the test system is Ileum. Description: Ex vivo spasmolytic activity in ACh-induced contractions in Sprague-Dawley rat ileum at 0.5 to 8 uM incubated for 5 mins in presence L-NAME relative to control. The format is functional. Particulars: dose 0.5-8 µM.
In assay [15] the test system is Ileum. Description: Ex vivo spasmolytic activity in ACh-induced contractions in Sprague-Dawley rat ileum incubated for 5 mins in presence of CsCl. It is filed as functional, tissue-based.
For assay [16], the system named is Ileum. Description: Ex vivo spasmolytic activity in ACh-induced contractions in Sprague-Dawley rat ileum at 0.5 to 8 uM incubated for 5 mins in presence of TEA relative to control. It is filed as functional. As to conditions: dose 0.5-8 µM.

Calls of active or inactive are those of the source. No cut-off for these calls is given here.

Broadly, the EC50 is the concentration giving half of the maximal effect. The Emax is the size of the effect at its maximum, as opposed to the concentration needed.

Regarding `COc1c2cc(c(O[C@@H]3O[C@H](CO)[C@@H](O)[C@H](O)[C@H]3O)c1OC)CCCC(=O)[C@@H](O)Cc1ccc(O)c-2c1`, in the assay on Ileum [1], the response was half-maximal at 1.6 µM (EC50). On to `COc1c2ccc(c1O)CCCCC(=O)CCc1ccc(O)c(c1)O2`, for which the EC50 in the assay with Ileum [1] was 3.8 µM. On to `COc1c2cc(c(O[C@@H]3O[C@H](CO)[C@@H](O)[C@H](O)[C@H]3O)c1OC)CCCCC(=O)CCc1ccc(O)c-2c1`, for which the EC50 in the assay with Ileum [1] came out at 2.3 µM.

Compound `COc1c2cc(c(O[C@@H]3O[C@H](CO)[C@@H](O)[C@H](O)[C@H]3O)c1OC)CCCC[C@H](O)CCc1ccc(O)c-2c1` yielded an EC50 in the assay with Ileum [1] of 2.4 µM. The compound `COc1c2cc(c(O)c1OC)CCCC[C@@H](OC(C)=O)CCc1ccc(O)c-2c1` yielded an EC50 with Ileum [1] of 3.7 µM. `COc1c2cc(c(OC)c1OC)-c1cc(ccc1O)[C@H](O)CC(=O)CCCC2` came in with an EC50 in the assay on Ileum [1] of 4.6 µM. On to `COc1c2cc(c(OC)c1O)-c1cc(ccc1O)CC[C@H](O)CCCC2`, for which the EC50 with Ileum [1] amounted to 1.5 µM. Same read-out and setting: under `COc1cc2cc(c1OC)-c1cc(ccc1O)CCC(=O)CCCC2` stands 5 µM; under `COc1c2ccc(c1O[C@@H]1O[C@H](CO)[C@@H](O)[C@H](O)[C@H]1O)CCCCC(O)CCc1ccc(O)c(c1)O2` (stereo partly drawn), 3.6 µM; under `CCN(CC)CCOC(=O)C1(C2CCCCC2)CCCCC1` [DICYCLOMINE], 0.6 µM. In the assay on Ileum [1], `COc1c2cc(c(OC)c1OC)-c1cc(ccc1O)C[C@@H](O)[C@@H](O)CCCC2` displayed an EC50 of 2.8 µM. In the assay with Ileum [1], `COc1c2cc(c(O)c1OC)CCCCC(=O)CCc1ccc(O)c-2c1` [MYRICANONE] yielded an EC50 of 2.9 µM. As for `COc1c2cc(c(O[C@@H]3O[C@H](CO)[C@@H](O)[C@H](O)[C@H]3O)c1OC)CCCC[C@@H](OC(C)=O)CCc1ccc(O)c-2c1`, the concentration giving a half-maximal response (EC50) with Ileum [1] is 2.8 µM. Consider `COc1c2cc(c(O[C@@H]3O[C@H](CO)[C@@H](O)[C@H](O)[C@H]3O)c1OC)CCCCC(=O)[C@@H](O)Cc1ccc(O)c-2c1`, for which a half-maximal effect in the assay on Ileum [1] (EC50) was put at 2.4 µM. On to `COc1cc2cc(c1OC)-c1cc(ccc1O)C[C@H](O)C(=O)CCC2`, for which the EC50 is 1.7 µM with Ileum [2]; 1.6 µM in the assay with Ileum [7]; 1.5 µM in the assay on Ileum [8]; 5.1 µM in the assay on Ileum [10]; 1.9 µM in the assay with Ileum [13]; 1.4 µM in the assay on Ileum [1]. Moreover, the concentration giving a half-maximal response (EC50) in the assay with Ileum [15] stood at 1.6 µM. Also, in the assay on Ileum [3], the result was Active. In addition, the Emax with Ileum [4] was found to be 79.8%; with Ileum [5] it was 71.9%; in the assay with Ileum [6], 81.7%; in the assay on Ileum [9] it was 84.9%; in the assay with Ileum [11], 82.7%; in the assay on Ileum [14] it was 43%. Further, the Emax in the assay with Ileum [16] worked out at 60.8%. For the same compound, the Activity result in the assay on Ileum [12] is given as “Active; Activity Less Than Dichloromethane”.

For `COc1c2cc(c(O[C@@H]3O[C@H](CO)[C@@H](O)[C@H](O)[C@H]3O)c1OC)CCCC[C@@H](O)CCc1ccc(O)c-2c1`, the EC50 with Ileum [1] is 3.2 µM. `COc1c2cc(c(O)c1OC)CCCC[C@@H](O)CCc1ccc(O)c-2c1` returned an EC50 in the assay with Ileum [1] of 2.9 µM. As for `COc1c2cc(c(O)c1OC)CCCC(=O)[C@@H](O)Cc1ccc(O)c-2c1`, the half-maximal effective concentration (EC50) in the assay on Ileum [1] worked out at 5.1 µM.
